Experimental data taken from article PMC8692498, “Synthesis and multifaceted pharmacological activity of novel quinazoline NHE-1 inhibitors” (Scientific Reports, 2021).
Entries after “also recorded” stand apart in the source; their conditions may differ.

Key:
[1] = tested on: advanced glycation products from bovine serum albumin and glucose; assay: Antiglycating activity (AGE fluorescence, bovine serum albumin and glucose); format: biochemical; conditions: BSA 1 mg/ml, glucose 0.36 M, 60 °C, 24 hrs; read-out: IC50 of formation of advanced glycation products
Method: The glycation reaction was modeled using 1 mg/ml bovine serum albumin (Chemmed, Russia) and 0.36 M glucose (Vekton, Russia) in 50 mM phosphate buffer solution (PBS, pH 7.4) at 60 °C. After 24 hrs, albumin was precipitated using trichloroacetic acid (10% final concentration) and centrifugation (15 000 rpm, 4 min). The supernatant was removed by aspiration, and the residue was dissolved in 50 mM PBS (pH 10.5). Aliquots of 300 µl were transferred to a black flat-bottom 96-well microplate. AGE fluorescence was registered using Infinite M200 Pro (Tecan, Austria) microplate reader at excitation/emission wavelengths of 370/440 nm. Signals were normalized using blank samples containing BSA and the test compound in the appropriate concentration without the glucose. When normalized, the activity is expressed as the AGE fluorescence coefficient, determined by the formula: Flu=10^log10A-log10B-1, where A and B correspond to the absolute fluorescence values of the glucose-containing and mean glucose-free sample.
Activity percentage was calculated using the formula: A%=1-FluSample/FluControl×100%, where Flu(Sample) and Flu(Control) correspond to the normalized fluorescence coefficients of experimental and control samples. Experiments were run in 5 independent replicates.

[2] = target: T1, NHE-1 (Oryctolagus cuniculus, UniProt P23791); assay: NHE-1 inhibition assay on rabbit platelets (platelet shape change after acidification with sodium propionate, laser aggregometer); format: cell-based; conditions: 10 nM, rabbit platelet-rich plasma, decimal commas; read-out: NHE-1 inhibition at 10 nM, m ± SD, n = 6 (%)
T1 construct: endogenous in cells; host or cells: rabbit platelets in platelet-rich plasma (male rabbits)
Method: Evaluation of NHE-1 inhibition was carried out on rabbit platelets by the known method[39],[40]. The experiments were carried out on 15 male rabbits weighing 3.0-4.0 kg. Platelet-rich plasma (PRP) was obtained by centrifuging blood with 3.8% sodium citrate (1:10) at 1000 rpm for 12 min (Multi centrifuge CM 6M, Latvia). Platelet shapeshifting due to acidification was followed with a laser aggregometer BIOLA-220 LA (Russia). Test compounds (10 μl, 10 nM final concentration) were added to 200 μl of PRP 5 min in a cuvette before the addition of sodium propionate solution, incubated with constant stirring using a magnetic stirrer (800 rpm, 37 °C). To control samples for NHE-1 activation, a buffer solution containing sodium propionate was added to 200 μL of PRP (600 μL, 135 mM sodium propionate, 20 mM HEPES, 1 mM CaCI2, 1 mM MgCI2, 10 mM glucose; pH 6.7). The change in light transmission at pH 7.4, 37 °C was monitored in a Krebs solution (600 μL, 120 mM NaCl, 4.8 mM KCl, 1.2 mM KH2PO4, 2.5 mM MgSO4, 25 mM NaHCO3, 2.6 mM CaCl2, 5.4 mM glucose; pH 7.4). Test compounds were added to a final concentration of 10 nM to the cuvette into 200 μl of PRP 5 min before adding the sodium propionate solution, incubated with constant stirring using a magnetic stirrer (800 rpm, 37 °C). NHE-1 inhibitors zoniporide, rimeporide, amiloride were used as reference drugs. Assays were run in 6 independent series.

[3] = Cytotoxicity study (LDH activity in the medium) in peritoneal macrophages; format: cell-based; conditions: male, C57BL/6J, mouse, primary peritoneal macrophages; murine peritoneal macrophages, LDH
Method: (§1) Peritoneal macrophages (PM) were isolated from the peritoneal exudate of 30 male C57bl/6j mice. To accumulate PM, 1 ml of 3% peptone solution was injected intraperitoneally. After 3 days the mice were euthanized by cervical dislocation. Cells of peritoneal exudate were obtained by aseptically washing the abdominal cavity with 5 ml of sterile Hanks’s solution (+ 4-6 °C) without calcium and magnesium ions. The total number and viability of cells were assessed in a Goryaev counting chamber (Russia) with a 0.4% trypan blue staining (Sigma-Aldrich, USA). The cell concentration was adjusted to 1.0×10^6 cells/ml in DMEM (Gibco) supplemented with 2 mM L-glutamine (Gibco), 10% heat-inactivated fetal bovine serum (BioClot, Germany), 100 U/ml penicillin and […] streptomycin (Gibco) and plated 200 μl/well in 96-well transparent plates (SPL Life Sciences Co., Ltd., Korea). It was left for 2 h at 37°C in a humidified atmosphere with 5% CO2, after which the wells were washed to remove non-adherent cells. After 24 hours of incubation, 20 μl of the supernatant was removed and 20 μl of solutions of test compounds were added 30 min before E. coli O127:B8 LPS (100 ng/ml final concentration). Experiments were run in 3 independent replicates.
(§2) The activity of lactate dehydrogenase (LDH) in a cell culture medium served as a marker of membrane permeability and cell death. Aliquotes of supernatants were taken after 24 h of inoculation with test compounds, mixed with 250 μl of […] NADH solution in 54 mM phosphate buffered saline (pH 7.5). Then, 25 μl of a 6.48 mM pyruvate solution was added to the mixture. The optical density was followed at a wavelength of 340 nm for 20 min. Conversion of optical density into cell viability was carried out according to a standard curve (DMSO-treated cells as 100% and 0.01% Triton X-100-treated cells as 0% viable cells).

[4] = tested on: ICR mice; assay: Tail suspension test (antidepressant activity); format: in vivo; conditions: intragastrically 30 min before test, dose equimolar to 2.6 mg/kg amiloride
Method: The experiment was carried out on 36 male ICR mice weighing 22-25 g, divided into groups of 6 animals each under room lighting (300 lux). […] In experiments, test substances were administered intragastrically 30 min before the start of the test. Experimental groups received test compounds in an equimolar dose to the comparison drug amiloride. Animals of the remaining groups were treated with 2.6 mg/kg amiloride, 10 mg/kg amitriptyline, or 8 mg/kg imipramine. Distilled water was administered to the control group. The time of immobilization of the animals was recorded.

[5] = tested on: IL-6 secretion; assay: Interleukin-6 secretion (ELISA) from LPS-stimulated peritoneal macrophages; format: cell-based, mice; conditions: male, C57BL/6J, mouse, primary peritoneal macrophages stimulated with LPS; CC50 versus IC50 of IL-6 secretion; read-out: selectivity of IL-6 inhibition over cytotoxicity
Method: as §1
(§3) Cell supernatant was collected and centrifuged at 1000 g for 20 min in a 2-16PK Sigma centrifuge (Germany). The concentration of IL-6 was determined by ELISA using a commercial kit (Cloud-clone ELISA kit) with a microplate reader Infinite M200 PRO (Tecan, Austria).

[6] = tested on: primary peritoneal macrophages of C57BL/6J mice; assay: as above; format: cell-based
Method: as §1, §3

[7] = tested on: primary peritoneal macrophages of C57BL/6J mice; assay: Cytotoxicity study (LDH activity in the medium) in peritoneal macrophages; format: cell-based; conditions: 100 μM, peritoneal macrophages
Method: as §1, §2

[8] = tested on: rabbit platelets; assay: ADP-induced platelet aggregation assay in rabbit platelet-rich plasma; format: cell-based; conditions: 100 μM, ADP 5 μM
Method: Functional activity of platelets was determined on a two-channel laser analyzer of platelet aggregation "BIOLA-220 LA" (Russia) as described previously. The experiments were carried out on 6 male rabbits weighing 3.5–4 kg. To prepare platelet-rich plasma (PRP) venous blood was taken from the ear marginal vein of a rabbit, stabilized with a 3.8% sodium citrate solution in a ratio of 9:1 and centrifuged for 10 min at 1500 rpm. PRP (300 μL) and a solution of the test compound at a concentration of 100 μM were sequentially introduced into the cell of the aggregometer. The samples were incubated in thermostated cells of the aggregometer at 37 °C for 5 min. To induce aggregation adenosine-5-diphosphoric acid (ADP, Sigma, USA) at a final concentration of 5 μM, was added to the cuvette. Acetylsalicylic acid (Shandong Xinhua Pharmaceutical Co., Ltd., China) was used as a reference drug. Experiments were run in 5 independent replicates.

[9] = tested on: primary peritoneal macrophages of C57BL/6J mice; assay: Nitric oxide synthesis (nitrite, Griess reagent) in LPS-stimulated peritoneal macrophages; format: cell-based; conditions: 100 μM
Method: as §1
The accumulation of nitrite anion (a stable end product of NO decomposition produced by iNOS) in supernatants was determined using a standard Griess reagent. Briefly, 50 μl of supernatants collected 22 hours after incubation of PM with test and control compounds were mixed with 50 μl of 1% sulfonamide in 2.5% H3PO4 and 50 μl of 0.1% N-(1-naphthyl) ethylenediamine in 2,5% H3PO4. After incubation at 23 °C for 10 min in an orbital shaker, the optical density was determined at a wavelength of 550 nm with a microplate reader Infinite M200 PRO (Tecan, Austria).

T1 sequence (P23791 whole entry): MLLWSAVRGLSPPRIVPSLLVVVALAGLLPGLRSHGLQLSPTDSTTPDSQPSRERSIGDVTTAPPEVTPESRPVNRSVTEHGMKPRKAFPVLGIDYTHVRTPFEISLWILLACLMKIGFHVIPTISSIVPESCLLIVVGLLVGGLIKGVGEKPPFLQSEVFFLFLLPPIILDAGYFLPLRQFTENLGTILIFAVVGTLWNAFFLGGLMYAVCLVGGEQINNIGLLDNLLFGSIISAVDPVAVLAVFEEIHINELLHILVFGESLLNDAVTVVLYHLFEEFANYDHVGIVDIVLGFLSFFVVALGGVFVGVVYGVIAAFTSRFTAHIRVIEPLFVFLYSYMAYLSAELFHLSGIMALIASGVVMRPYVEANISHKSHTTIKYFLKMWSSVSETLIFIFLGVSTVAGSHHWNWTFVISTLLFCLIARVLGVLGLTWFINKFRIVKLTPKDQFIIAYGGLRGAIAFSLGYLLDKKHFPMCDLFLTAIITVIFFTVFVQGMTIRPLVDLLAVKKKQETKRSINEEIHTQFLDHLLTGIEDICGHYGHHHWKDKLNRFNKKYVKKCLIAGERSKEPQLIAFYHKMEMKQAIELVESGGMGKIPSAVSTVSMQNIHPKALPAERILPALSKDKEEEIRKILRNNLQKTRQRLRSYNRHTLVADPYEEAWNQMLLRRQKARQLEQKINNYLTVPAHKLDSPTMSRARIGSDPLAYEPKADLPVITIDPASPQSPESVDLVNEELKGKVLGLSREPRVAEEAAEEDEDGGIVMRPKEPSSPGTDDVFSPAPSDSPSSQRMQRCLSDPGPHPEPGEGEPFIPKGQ

melting point [°C]	inhibition at 0.01 µM [2] [%]	IC50 ([6]; Mus musculus, Peritoneal macrophage, LPS-stimulated murine macrophages, read-out: IC50 of IL-6 synthesis/secretion) [µM]	SMILES	IC50 [1] [µM]	CC50 at 24 h [3] [µM]	antidepressant activity [4]	selectivity ratio [5]	secretion of interleukin 6 ([6]; LPS-stimulated macrophages, screening (Fig. 4))	effect on cell viability [7]	antiplatelet activity versus acetylsalicylic acid [8]	inhibition of the synthesis of nitric oxide [9]
–	–	–	N=C(N)NN [aminoguanidine, reference compound]	4520	–	–	–	–	–	–	–
262 to 265	12.9	24.1	Nc1nnc(Cn2c(=O)c3ccccc3n(Cc3ccccc3)c2=O)[nH]1 [Compound 3i, 3-[(5-Amino-4H-1,2,4-triazol-3-yl)methyl]-1-benzylquinazoline-2,4(1H,3H)-dione]	–	146	antidepressant activity similar to amiloride; also recorded: antidepressant activity comparable with amiloride	4 to 6	suppressed	–	–	–
–	25.8	–	Nc1nc(Cn2cnc3ccc(Br)cc3c2=O)n[nH]1 [Compound 6b, 3-[(5-Amino-1H-1,2,4-triazol-3-yl)methyl]-6-bromoquinazolin-4(3H)-one]	506	–	–	–	–	absence of a statistically significant effect on cell viability	exceeded the activity of the reference drug, acetylsalicylic acid	statistically significantly inhibit
